Article PMC11951083, “Highly Specific Miniaturized Fluorescent Monoacylglycerol Lipase Probes Enable Translational Research” (Journal of the American Chemical Society, 2025)

Legend:
[1] = target: T1, MAGL (Homo sapiens, UniProt Q99685); assay: Native MS (RapidFire) 2-AG substrate assay, purified human MAGL; type: biochemical; details: SI Table 1; read-out: IC50 against purified MAGL ± SEM, Human
T1 sequence (Q99685 1-303): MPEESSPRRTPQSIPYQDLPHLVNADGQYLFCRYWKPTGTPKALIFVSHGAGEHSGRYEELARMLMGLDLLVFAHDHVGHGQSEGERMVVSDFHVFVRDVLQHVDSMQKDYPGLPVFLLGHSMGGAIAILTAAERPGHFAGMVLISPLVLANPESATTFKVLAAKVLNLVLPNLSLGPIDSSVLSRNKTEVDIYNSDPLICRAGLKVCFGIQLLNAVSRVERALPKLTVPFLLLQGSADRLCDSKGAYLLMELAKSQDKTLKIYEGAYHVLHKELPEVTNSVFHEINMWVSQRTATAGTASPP
Experimental: (§1) In vitro MAGL Inhibition Assay
(§2) Compounds were profiled for MAGL inhibitory activity by determining the enzymatic activity by following the hydrolysis of the natural substrate 2-arachidonoylglycerol (2-AG), resulting in arachidonic acid, which can be followed by mass spectrometry. The 2-AG assay was carried out in 384 well assay plates (PP, Greiner Cat# 784201) in a total volume of 20 µL. Compound dilutions were made in 100% DMSO (VWR Chemicals 23500.297) in a polypropylene plate in 3-fold dilution steps to give a final concentration range in the assay from 12.5 µM to 0.8 pM. 0.25µL compound dilutions (100% DMSO) were added to 9 µL MAGL in assay buffer (50 mM TRIS (GIBCO, 15567-027), 1 mM EDTA (Fluka, 03690-100 mL), 0.01% (v/v) Tween. After shaking, the plate was incubated for 15 min at RT. To start the reaction, 10 µL 2-arachidonoylglycerol in assay buffer was added. The final concentrations in the assay were 50 pM MAGL and 8 µM 2-arachidonoylglyerol. After shaking and 30 min incubation at RT, the reaction was quenched by the addition of 40µL of ACN containing 4µM of d8-arachidonic acid. The amount of arachidonic acid was traced by an online SPE system (Agilent Rapidfire) coupled to a triple quadrupole mass spectrometer (Agilent 6460). A C18 SPE cartridge (G9205A) was used in an ACN/water liquid setup. The mass spectrometer was operated in negative electrospray mode following the mass transitions 303.1 → 259.1 for arachidonic acid and 311.1 → 267.0 for d8-arachidonic acid. The activity of the compounds was calculated based on the ratio of intensities [arachidonic acid / d8-arachidonic acid]. The lowest IC50 value that can be determined with high accuracy is approximately 0.025 nM.

[2] = target: T2, mMAGL (Mus musculus, UniProt O35678); assay: Native MS (RapidFire) 2-AG substrate assay, purified mouse MAGL; type: biochemical; details: SI Table 1; read-out: IC50 against purified MAGL ± SEM, Mouse
T2 sequence (O35678 1-303): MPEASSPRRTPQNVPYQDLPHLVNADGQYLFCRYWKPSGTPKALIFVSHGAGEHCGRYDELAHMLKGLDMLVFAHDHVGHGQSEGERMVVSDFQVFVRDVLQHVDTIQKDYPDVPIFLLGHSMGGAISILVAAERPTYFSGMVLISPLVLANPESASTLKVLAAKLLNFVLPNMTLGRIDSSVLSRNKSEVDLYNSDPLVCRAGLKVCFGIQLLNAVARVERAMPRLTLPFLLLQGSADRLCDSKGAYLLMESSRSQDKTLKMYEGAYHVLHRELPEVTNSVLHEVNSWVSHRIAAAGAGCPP
Experimental: as §1, §2

[3] = target: NanoLuc luciferase MAGL fusion protein; assay: Cellular MAGL NanoBRET target engagement assay in live HEK293 cells; type: cell-based; details: SI Table 1, live HEK293 cells; read-out: NanoBRET IC50 ± SEM, HEK293
Experimental: This assay was performed as first described before.20
Compounds were profiled by a novel cellular MAGL NanoBRET™ Target Engagement assay, which measures the apparent affinity of test compounds by competitive displacement of a Roche -developed Tracer (WO2021058443, Example 2 121, or probe 4a, respectively), reversibly bound to a NanoLuc ® luciferase MAGL fusion protein in cells.
A HEK293A stable cell line expressing NanoLuc_MAGL was established at Roche and assigned as HEK293A_NanoLuc_MAGL clone #43. A fixed concentration of tracer is added to cells expressing the NanoLuc®_MAGL fusion protein to generate a BRET reporter complex. The introduction of competing compounds results in a dose -dependent decrease in NanoBRET™ energy transfer, which allows quantification of the intracellular affinity of the target protein for the test compound.
HEK293A_NanoLuc_MAGL clone #43 cells were cultured in DMEM (Gibco 31966) with 10% FBS and 800 ug/ml G418. The NanoBRET assay was performed by seeding 5000 cells/well in Costar low - volume white 384-well plate in assay buffer (1% FBS in HBSS), followed by adding the tracer (50 nM Example 21 or 100 nM 4a final concentration) and serial dilutions of test compounds. After 2 hours of incubation, Nanoluciferase substrates and extracellular inhibitors were added following the manufacturer's protocol (Promega, #N2520), and the NanoBRET signaling were quantified with the Paradigm (Molecular Devices).

[4] = target: T3, cMAGL (Macaca fascicularis, UniProt A0A2K5V664); assay: Native MS (RapidFire) 2-AG substrate assay, purified cynomolgus monkey MAGL; type: biochemical; details: SI Table 1; read-out: IC50 against purified MAGL ± SEM, Cynomolgus
T3 sequence (A0A2K5V664 11-297): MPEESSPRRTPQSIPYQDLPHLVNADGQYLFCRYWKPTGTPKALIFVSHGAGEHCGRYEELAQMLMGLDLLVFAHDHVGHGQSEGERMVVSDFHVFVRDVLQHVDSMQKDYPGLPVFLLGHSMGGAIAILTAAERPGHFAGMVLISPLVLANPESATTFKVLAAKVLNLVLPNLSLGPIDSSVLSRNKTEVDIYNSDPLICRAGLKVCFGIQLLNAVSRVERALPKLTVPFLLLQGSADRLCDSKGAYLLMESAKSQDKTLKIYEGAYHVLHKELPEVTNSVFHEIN
Experimental: as §1, §2

[5] = target: T4, rMAGL (Rattus norvegicus, UniProt Q8R431); assay: Native MS (RapidFire) 2-AG substrate assay, purified rat MAGL; type: biochemical; details: SI Table 1; read-out: IC50 against purified MAGL ± SEM, Rat
T4 sequence (Q8R431 1-303): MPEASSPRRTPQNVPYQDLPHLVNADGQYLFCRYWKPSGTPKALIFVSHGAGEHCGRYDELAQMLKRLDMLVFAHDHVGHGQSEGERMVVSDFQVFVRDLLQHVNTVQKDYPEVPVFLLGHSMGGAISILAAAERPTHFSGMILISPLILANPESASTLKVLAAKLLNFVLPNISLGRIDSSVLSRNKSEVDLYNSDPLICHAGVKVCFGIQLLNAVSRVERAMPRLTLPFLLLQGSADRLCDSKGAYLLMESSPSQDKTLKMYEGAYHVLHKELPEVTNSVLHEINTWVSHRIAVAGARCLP
Experimental: as §1, §2

SMILES	IC50 [1] [nM]	IC50 [2] [nM]	IC50 [3] [nM]	IC50 [4] [nM]	IC50 [5] [nM]
O=C1CO[C@H]2CCN(C(=O)N3C[C@@H]4[C@@H](COC5=C6C=CC=[N+]6[B-](F)(F)n6cccc65)[C@@H]4C3)C[C@H]2N1 [Compound S3]	500	1040	> 10000		
O=C1CO[C@H]2CCN(C(=O)N3CC4(CCC(OC5=C6C=CC=[N+]6[B-](F)(F)n6cccc65)CC4)C3)C[C@H]2N1 [Compound S4]	3.82 ± 1.91	7.06 ± 4.73	4630 ± 52	8.37	21.6
O=C1CO[C@H]2CCN(C(=O)N3CCC4(CC3)CC(OC3=C5C=CC=[N+]5[B-](F)(F)n5cccc53)C4)C[C@H]2N1 [Compound S6]	45	170	> 10000		
O=C1NC2(CO1)CN(C(=O)N1CCC3(CC1)CC(OC1=C4C=CC=[N+]4[B-](F)(F)n4cccc41)C3)C2 [Compound S8]	3.99	13.6	> 10000		
O=C1CO[C@H]2CCN(C(=O)N3CCC(=CC4=C5C=CC=[N+]5[B-](F)(F)n5cccc54)CC3)C[C@H]2N1 [Compound S10]	1680	3400	> 10000		
O=C1CO[C@H]2CCN(C(=O)N3CC4(CCC(CC5=C6C=CC=[N+]6[B-](F)(F)n6cccc65)CC4)C3)C[C@H]2N1 [Compound S12]	2.35	12.4	564	2.73	10.9
O=C1CO[C@H]2CCN(C(=O)N3CC4(CC(=CC5=C6C=CC=[N+]6[B-](F)(F)n6cccc65)C4)C3)C[C@H]2N1 [Compound S13]	43.3	182	> 10000		
O=C1NC2(CO1)CN(C(=O)N1CC3(CC(=CC4=C5C=CC=[N+]5[B-](F)(F)n5cccc54)C3)C1)C2 [Compound S14]	12.6	12.4	> 10000		
O=C1NC2(CO1)CN(C(=O)N1CC3(CC(CC4=C5C=CC=[N+]5[B-](F)(F)n5cccc54)C3)C1)C2 [Compound S15]	1.26	1.36	5540	3.27	4.46
O=C1NC2(CO1)CN(C(=O)N1CC3(CCC(=CC4=C5C=CC=[N+]5[B-](F)(F)n5cccc54)CC3)C1)C2 [Compound S16]	0.67	0.81	574		
O=C1N[C@H](CCC(=O)N2CC3(CC(CC4=C5C=CC=[N+]5[B-](F)(F)n5cccc54)C3)C2)CO1 [Compound S17]	1.01	0.84	300		
NC(=O)[C@H]1CCN(C(=O)N2CC3(CC(CC4=C5C=CC=[N+]5[B-](F)(F)n5cccc54)C3)C2)C1 [Compound S18]	1.98	2.07	1940		
O=C1COc2ccc(C(=O)N3CC4(CC(CC5=C6C=CC=[N+]6[B-](F)(F)n6cccc65)C4)C3)cc2N1 [Compound S19]	7.5	18.6	299		
Cc1ccc2oc(N3CCN(C(=O)N4CC5(CC(CC6=C7C=CC=[N+]7[B-](F)(F)n7cccc76)C5)C4)CC3)nc2n1 [Compound S20]	17.2	108	> 10000		
O=C1CO[C@H]2CCN(C(=O)N3CC4(CC(CC5=C6C=CC(c7ccccc7)=[N+]6[B-](F)(F)n6cccc65)C4)C3)C[C@H]2N1 [Compound S22]	0.66	0.37	56 ± 6		
